We go through one molecule from US9963726B2, “Fiber-containing carbohydrate composition” (Tate & Lyle Ingredients Americas LLC, priority 2006, dated 2018).

The structures appear in SMILES notation. Marks after values point to notes of the source that are not given here.

The assay relates to healthy human subjects. Description: Blood glucose response in healthy human subjects. The format is in vivo. As to conditions: 10 healthy human subjects. As for the experimental part: Samples containing 25 g (dsb) of the syrup were prepared as follows. 2.838 kg of filtered water was added to a jug containing a pre-weighed quantity of RCS. The lid was placed on the jug, and it was then mixed thoroughly by shaking and swirling until all syrup was dissolved. 12 oz. (350 g) of this solution contained 25 g of the test carbohydrate on a dry solids basis.
The control solution was prepared by mixing 25 g anhydrous glucose with 300 mL of water.
The samples were administered to 10 healthy human subjects. The characteristics of the subjects were: 5 male, 5 female; age, 35±10 y; body mass index, 24.0±3.8 kg/m^2. Each subject undertook nine tests on separate days which included the six test foods and on three occasions the standard glucose drink containing 25 g of available carbohydrate. Blood glucose was measured fasting and at 15, 30, 45, 60, 90 and 120 minutes after eating. Incremental areas under the blood glucose response curves (iAUC) were calculated. Each subject's iAUC after consumption of each test food was expressed as a percentage of the mean iAUC of the three glucose controls taken by the same subject. The incremental areas under the curve and relative glycemic response (RGR) of the products were: […]

For `OC[C@H]1OC(O)[C@H](O)[C@@H](O)[C@@H]1O` (some centres unmarked) [Glucose, anhydrous glucose], the “iAUC (incremental area under the blood glucose response curve)” value (25 g (dsb), blood glucose fasting to 120 minutes) is given as 124.4 ± 13.5^a. In addition, under “iAUC as percentage of mean iAUC of the three glucose controls of the same subject”, the “RGR (relative glycemic response)” value is 100^a.
